Reference: patent US12318370B2, “Processes for preparing solid state forms” (Varda Space Industries, Inc., priority 2022, dated 2025)

What was measured:
Format in all cases: physicochemical
Manual grinding, XRPD = conditions: mortar and pestle, five cycles of 2 minutes (10 minutes total)
[1] = Temperature and humidity stress test, 40° C./75% RH, XRPD; conditions: for Change of solid form under stress, in words: 40° C. and 75% RH, XRPD at 30, 60 and 96 days; for Solid form after stress test / Time at which conversion to Form I was detected: 40° C./75% RH; for Solid form after stress test: XRPD
Procedure: XRPD was measured at 30, 60, and 96 days (FIG. 15).

[2] = Compression at 700 lbs, XRPD; conditions: XRPD before and after, listed as ritonavir Form III
[3] = Short-term thermal stability, Raman microscopy; conditions: sequentially 15 minutes at 50° C., 70° C. and 90° C., Raman after each
Procedure: Short-term thermal stability experiments were conducted by holding the material from example 1f sequentially for 15 minutes at 50° C., 15 minutes at 70° C., and 15 minutes at 90° C. The sample was analyzed by Raman microscopy after each temperature exposure. […] FIG. 10 compares the short-term thermal stability results to the reference spectra from FIG. 9.

[4] = Longer-term stability at ambient conditions, Raman; conditions: 5 weeks and up to 23 weeks
Procedure: Additionally, a longer-term stability study was performed.

[5] = Dynamic vapor sorption (DVS); conditions: 5% to 95% RH
Excerpt: No hysteresis was observed. DVS isotherms were characterized using a VTI SGA-100 Vapor Sorption Analyzer. The sample was not dried prior to analysis. Sorption and desorption isotherms were collected over a range from 5% to 95% RH at 10% RH increments under a dry air purge. The equilibrium criterion used for analysis was less than 0.0100%^0/weight change in five minutes with a maximum equilibration time of three hours and a 2-minute data logging interval. Data were not corrected for the initial moisture content of the sample.

Structure (SMILES)	Solid form after manual grinding (Manual grinding, XRPD)	Change of solid form under stress, in words [1]	Solid form after stress test ([1]; 30 days)	Solid form after stress test ([1]; 60 days)	Solid form after stress test ([1]; 96 days)	Time at which conversion to Form I was detected ([1]; listed as amorphous ritonavir) [days]	Solid form after manual grinding (Manual grinding, XRPD; listed as Amorphous material)	Solid form after stress test ([1]; 96 days, listed as ritonavir Form III)	Time at which conversion to Form I was detected ([1]; listed as Form III ritonavir) [days]	Time at which conversion to Form I was detected ([1]; listed as ritonavir Form III) [days]	Solid form after manual grinding (Manual grinding, XRPD; listed as ritonavir Form III)	Change of solid form after compression [2]	Solid form after short-term thermal exposure [3]	Solid form after storage at ambient conditions [4]	Hygroscopicity [5]
CC(C)c1nc(CN(C)C(=O)N[C@H](C(=O)N[C@@H](Cc2ccccc2)C[C@H](O)[C@H](Cc2ccccc2)NC(=O)OCc2cncs2)C(C)C)cs1 (single isomer, unassigned) [Form II, 10-hydroxy-2-methyl-5-(1-methylethyl)-1-[2-(1-methylethyl)-4-thiazolyl]-3,6-dioxo-8,11-bis(phenylmethyl)-2,4,7,12-tetraazatridecan-13-oic acid, 5-thiazolylmethyl ester, [SS-(5R*,8R*,10R*,1R*)]]	mixture of amorphous and Form II	–	–	–	–	–	–	–	–	–	–	–	–	–	–
CC(C)c1nc(CN(C)C(=O)N[C@H](C(=O)N[C@@H](Cc2ccccc2)C[C@H](O)[C@H](Cc2ccccc2)NC(=O)OCc2cncs2)C(C)C)cs1 (single isomer, unassigned) [Form I, 10-hydroxy-2-methyl-5-(1-methylethyl)-1-[2-(1-methylethyl)-4-thiazolyl]-3,6-dioxo-8,11-bis(phenylmethyl)-2,4,7,12-tetraazatridecan-13-oic acid, 5-thiazolylmethyl ester, [SS-(5R*,8R*,10R*,1R*)]]	Mixture of amorphous and Form I	No change	Form I	Form I	Form I	–	–	–	–	–	–	–	–	–	–
CC(C)c1nc(CN(C)C(=O)N[C@H](C(=O)N[C@@H](Cc2ccccc2)C[C@H](O)[C@H](Cc2ccccc2)NC(=O)OCc2cncs2)C(C)C)cs1 (single isomer, unassigned) [Amorphous, 10-hydroxy-2-methyl-5-(1-methylethyl)-1-[2-(1-methylethyl)-4-thiazolyl]-3,6-dioxo-8,11-bis(phenylmethyl)-2,4,7,12-tetraazatridecan-13-oic acid, 5-thiazolylmethyl ester, [SS-(5R*,8R*,10R*,1R*)]]	–	No change	Form I	Form I	Form I	≤ 30	remained unchanged	–	–	–	–	–	–	–	–
CC(C)c1nc(CN(C)C(=O)N[C@H](C(=O)N[C@@H](Cc2ccccc2)C[C@H](O)[C@H](Cc2ccccc2)NC(=O)OCc2cncs2)C(C)C)cs1 (single isomer, unassigned) [Form III, 10-hydroxy-2-methyl-5-(1-methylethyl)-1-[2-(1-methylethyl)-4-thiazolyl]-3,6-dioxo-8,11-bis(phenylmethyl)-2,4,7,12-tetraazatridecan-13-oic acid, 5-thiazolylmethyl ester, [SS-(5R*,8R*,10R*,1R*)]]	–	–	Form III	Form III + Form I	Form III + Form I	–	–	presence of Form I peaks	60	60	amorphous with traces of Form III	no change	remained as Form III ritonavir	remained unchanged	not hygroscopic
